Data from US7792576B2, “Method of treatment for central nervous system injury” (Purdue Research Foundation, priority 2002, dated 2010).

Experiments:
retinal ganglion cells = details: administered in vitro to retinal ganglion cells; U.S. Pat. No. 6,440,455 and Benowitz et al. 1999; cited from earlier work
[1] = test system: CTM reflex after right lateral hemisection of the spinal cord in adult guinea pig; assay: Behavioral recovery of the cutaneous trunci muscle (CTM) reflex after chronic spinal cord injury (Study One); format: in vivo
Source text: Fully adult (approximately 400 grams (g)) female guinea pigs were used in this study (Hartley Strain). They were anesthetized with ketamine/xylyzine by conventional methods (Borgens et al. (2002) J. Exp. Biol. 205, 1-12) prior to surgery, kept warm with heat lamps after surgery, and maintained individually in pens and fed ad libidum for the duration of the investigation. Animals were euthanized at the end of the study, prior to the harvesting of spinal cords for anatomical study by an overdose of the anesthesia (see Borgens et al. (2002) J. Exp. Biol. 205, 1-12).
A laminectomy procedure exposing the dorsal aspect of the spinal cord was performed on all animals between T9 and T11. A right lateral hemisection was performed (FIG. 1) using a special cutting device, and further confirmed to be “complete” (that is, leaving no spared parenchyma) by passing a sharpened pin through the cut tissue. This operation severs the entire right side of the cord from the midline to the far right border of the spinal cord forming a rostral and caudal segment. The entire left side of the spinal cord was left intact. Immediately after transection, a marker device made of surgical stainless steel was inserted into the lesion, as previously described in Borgens et al. (1986) J. Comp. Neurol 250, 168-180 and Borgens and Bohnert (1997) Exp. Neurol. 145, 376-389. […]

[2] = test system: ascending and descending axons of transected spinal cord white matter in adult guinea pig; assay: Anterograde intracellular labeling of spinal cord white matter axons: axonal projections relative to the plane of transection (Study One); format: in vivo
Procedure: A laminectomy procedure exposing the dorsal aspect of the spinal cord was performed on all animals between T9 and T11. A right lateral hemisection was performed (FIG. 1) using a special cutting device, and further confirmed to be “complete” (that is, leaving no spared parenchyma) by passing a sharpened pin through the cut tissue. This operation severs the entire right side of the cord from the midline to the far right border of the spinal cord forming a rostral and caudal segment. The entire left side of the spinal cord was left intact. Immediately after transection, a marker device made of surgical stainless steel was inserted into the lesion, as previously described in Borgens et al. (1986) J. Comp. Neurol 250, 168-180 and Borgens and Bohnert (1997) Exp. Neurol. 145, 376-389. This device was left in situ for the duration of the study, and removed prior to histological processing. This procedure leaves a hole in the tissue, which accurately marks the exact plane of transaction even in chronic injuries many months old (FIGS. 1 and 2). The injection of various intracellular labels into guinea pig spinal cord white matter has been described in numerous previous publications. See, for example, Borgens et al. (1986) J Comp Neurol 250, 168-180 and Borgens et al. (1999) Journal of Neurotrauma 16, 639-57. Briefly, approximately 18 hours prior to the sacrifice of the animal, the spinal cord was exposed by surgery, and approximately […], of a fluorescently labeled dextran was injected using a Hamiliton syringe. The label (50% in distilled water; 10,000 Daltons) was injected deep into the parenchyma of white matter, approximately two vertebral segments rostral and caudal of the plane of transection (usually still visible, due to the indwelling marker device). A FITC conjugated dextran (“Flouro-emerald”) was injected rostral to the plane of transection, and a rhodamine-conjugated dextran (“Flouro-ruby”) was injected caudal to the plane of transaction. Thus, this anterograde double label technique marked both ascending fibers (mostly sensory afferent fibers) projecting towards the lesion from below it and descending axons (mainly motor fibers) projecting towards the lesion from above it). Longitudinal horizontal sections provided histological samples in which the entire extent of projection of a single axon often can be traced to fall short of, or regenerate to, around, or through the plane of transection. This procedure can sometimes provide dramatic examples of single unit axon degeneration and regeneration. However, it is not productive to attempt to count individual axons in longitudinal horizontal sections. Often axons take tortuous and curving trajectories, and would be counted more than once in individual histological samples. Additionally, sprouting and branching of fibers can lead to false counting relative to the extended growth from the stump of an individual severed fiber. Rather, the proportion of animals in which axons can be traced to terminate more than 250 μms from the plane of transaction (exactly identified by use of the indwelling marker), within 250 μms of the actual plane of transaction, and to cross the exact plane of transection into the adjacent segment of cord is compared. […] Images from an Olympus Van Ox microscope were obtained with an Optronics DEI-750 color video camera and captured to a PC with Adobe Twain 32 software. Table 1, below, provides the numbers of spinal cords that were injected with the intracellular label (N) and those that were lost to histology (LTH) for each of the three groups. The proportions of those cords in which marked fibers were traced to the four zones are given over the number of cords examined. Statistical Comparison between the groups is provided at the bottom of the graph (Fishers' exact two tailed test). […] Table 1 summarizes the results of anterograde filling of both ascending and descending tracts within the spinal cords of all animals in the Study One, of chronically injured animals. […]

Compound	axonal outgrowth (retinal ganglion cells)	percent recovery of the CTM receptive field (mean) ([1]; at the end of the study, chronic SCI, P=0.5 between groups (Mann Whitney))	animals that recovered some amount of CTM behavior ([1]; chronic SCI treated about 3 months after hemisection, inosine 10 mM s.c. osmotic pump 14 days, with or without OFS 4 weeks, 15 inosine, 16 inosine+OFS animals, none of 15 controls recovered)	Descending fibers, Zone 4: proportion of cords ([2]; FITC-labeled descending fibers projecting into the adjacent segment of cord, over number of cords examined)	Descending fibers, Zone 3: proportion of cords ([2]; FITC-labeled descending fibers terminating at the plane of transection, over number of cords examined)	Descending fibers, Zone 1 >250: cords with labeled fibers ([2]; FITC-labeled descending fibers terminating more than 250 μm from the plane of transection, chronic SCI)	Descending fibers, Zone 2 <250: proportion of cords ([2]; FITC-labeled descending fibers within 250 μm of the plane of transection, over number of cords examined)	Ascending fibers, Zone 4: proportion of cords ([2]; rhodamine-labeled ascending fibers projecting into the adjacent segment of cord, over number of cords examined)	Ascending fibers, Zone 3: proportion of cords ([2]; rhodamine-labeled ascending fibers terminating at the plane of transection, over number of cords examined)	Ascending fibers, Zone 1 >250: cords with labeled fibers ([2]; rhodamine-labeled ascending fibers terminating more than 250 μm from the plane of transection, chronic SCI)	Ascending fibers, Zone 2 <250: proportion of cords ([2]; rhodamine-labeled ascending fibers within 250 μm of the plane of transection, over number of cords examined)
Nc1nc2c(ncn2[C@@H]2O[C@H](CO)[C@@H](O)[C@H]2O)c(=O)[nH]1 [guanosine]	stimulating axonal outgrowth										
OC[C@H]1O[C@@H](n2cnc3c(O)ncnc32)[C@H](O)[C@@H]1O [Inosine, inosine]	stimulating axonal outgrowth	23.5±3.6%	11 animals	1/8	2/8	8	7/8	2/12	7/12	12	10/12
